The text below walks through data of patent publication US9713702B2, “Methods of electric field induced delivery of compounds, compositions used in delivery, and systems of delivery” (The Board of Trustee of the Leland Stanford Junior …, priority 2011, dated 2017).

Series [1] in a line: Release study in solution: electric field triggered release from the conductive hydrogel on a platinum electrode in PBS. Type of series: physicochemical. The procedure: The triggered release capabilities of this system were firstly investigated in solution. In phosphate buffered saline (PBS, pH 7.2), a voltage of −0.5 V was applied between two platinum electrodes separated by a distance of 1 cm. The anode was coated with 100 mg of the hydrogel containing 0.25 wt % fluorescein-encapsulated PPy nanoparticles with a thickness around 0.1 cm. The resistivity of the swelled hydrogel and the PBS buffer was measured to be 5400 Ω·cm and 64 Ω·cm, respectively. Then, the electric field across the hydrogel was calculated to be approximately −4.5 V/cm. The electrical stimulus was applied for 10 seconds, which was repeated every five minutes, followed by measurements of the concentration of free fluorescein in the solution. […] For each stimulus, ˜20 ng of fluorescein was released. The voltage between the two electrodes was then set at −1.5 V (corresponding to an electric field across the hydrogel of −13.6 V/cm). […] The higher amount observed during the first stimulus may result from higher drug loading within the nanoparticles. Our interest in the practicability of this triggered release led us to perform a long-term release study over seven days. With the voltage between the two electrodes at −1.0 V (corresponding to an electric field across the hydrogel of −9.0 V/cm), the pulsed electric stimulus was applied to the conductive hydrogels for 20 s, once every 24 hr, followed by concentration measurements of free fluorescein in solution. […] In the case of daunorubicin, an electric field across the hydrogel of 4.5 V/cm (the set voltage was 0.5 V) was applied for 10 seconds every 5 minutes.
By applying voltage until no obvious drug release could be detected, the loading percentage of fluorescein and daunorubicin in PPy nanoparticles was calculated to be around 3.6 wt % and 3.2 wt %. […] Only with an electric stimulus can drugs be released on command. This represents an important advantage of our delivery system over conventional sustained release of drugs from hydrogel.
The platinum anode was firstly coated with the PLGA-PEG-PLGA polymer solution (100 mg of polymer) containing 0.25 wt % fluorescein (or daunorubicin)-encapsulated PPy nanoparticles, followed by solidification of the gel at room temperature. The PPy nanoparticles in the solidified gel was calculated to be 1 wt %. The coated platinum anode was then immersed in phosphate buffered saline (PBS, pH 7.2) together with a counter platinum electrode with a separated distance of 1 cm. For the release study in solution, specific voltages were applied between the two electrodes, followed by measurements of the concentration of released molecules by fluorescent assays.

The procedure of series [2]: D-luciferin-encapsulated polypyrrole nanoparticles were synthesized the by an emulsion polymerization which could control the sizes of the nanoparticles. Luciferin served as a model molecule was incorporated in the polymer nanoparticle. […] At 4° C., 0.05 wt % of polypyrrole nanoparticles were dispersed in the water solution containing 15 wt % of poly[(D,L-lactic acid)-co-(glycolic acid)]-b-poly(ethylene oxide)-b-poly[(D,L-lactic acid)-co-(glycolic acid)] (PLGA-PEG-PLGA).
An electrical stimulus of −2.0 V/cm was applied for 10 seconds on the platinum electrodes in every 5 minutes, followed by measuring the concentration of luciferin in the solution.

For `COc1cccc2c1C(=O)c1c(O)c3c(c(O)c1C2=O)C[C@@](O)(C(C)=O)C[C@@H]3O[C@H]1C[C@H](N)[C@H](O)[C@H](C)O1` [daunorubicin], the “loading percentage in PPy nanoparticles” value in series [1] (calculated by applying voltage until no obvious drug release could be detected) is approximately 3.2 wt %. For the same compound, the “amount of daunorubicin released upon each stimulus” value in series [1] (daunorubicin-encapsulated PPy nanoparticles in hydrogel, PBS pH 7.2, 0.5 V (4.5 V/cm across hydrogel), 10 seconds every 5 minutes) is approximately 25 ng. Moreover, the “release from PPy nanoparticles in hydrogel without applying voltage” value in series [1] (drug encapsulated in PPy nanoparticles in hydrogel, no electric field (control)) is listed as “no obvious release”. In addition, in series [1] (drug in PLGA-PEG-PLGA hydrogel, not encapsulated in PPy nanoparticles, no voltage), the “sustained release from hydrogel without encapsulation in PPy nanoparticles” value is given as “most of the drugs in hydrogel were released in 4 days”.
Take `O=C(O)[C@H]1CSC(c2nc3ccc(O)cc3s2)=N1` [luciferin, D-luciferin]: in series [2] (D-luciferin-encapsulated polypyrrole nanoparticles in PLGA-PEG-PLGA hydrogel, -2.0 V/cm, 10 seconds every 5 minutes), the “release of luciferin upon electric stimulus” value was “released by applying the electric stimulus”. Also, the “release of luciferin without applying voltage” value in series [2] (D-luciferin-encapsulated polypyrrole nanoparticles in hydrogel, control without voltage) is reported as “no release”.
